How the values were obtained:
Assay type in all cases: in vivo, human
essential tremor [1] = experiment: Riboflavin daily in 15 persons over 50 with essential tremor, Fahn-Tolosa-Marin clinical tremor rating; parameters: key to Tremor Score After Rx, L Hand / Tremor Score After Rx, Head / Tremor Score After Rx, R Hand / Tremor Score After Rx, Hands: 0=Normal; 1=Slight; 2=Moderately abnormal; 3=Markedly abnormal; 4=Severely abnormal; conditions: for Tremor Score After Rx, Hands: before Rx Hands 1
Description: (§1) 15 persons over the age of 50 were tested, utilizing daily dosages of between 400 and 800 mg of riboflavin. Riboflavin was the only vitamin used for those patients who were on other tremor medications. These patients were continued on them.
Patients were evaluated with arms outstretched, elbows bent and hands near the chin, writing with both hands, drinking holding a cup with either hand, and pouring water with either hand. Evaluation was based on a four-point scale as published by Fahn, Tolosa and Marin, Clinical Rating Scale for Tremor in Parkinson's Disease and Movement Disorders [Williams and Wilkins, 1993].

[2] = Side effects in the 15-person riboflavin test
Description: as §1

essential tremor [3] = experiment: One patient, sequential course of riboflavin with/without coenzyme Q10 and B vitamins, tremor score; parameters: key to tremor score, Head / tremor score, Right Hand / tremor score, Left Hand: 0=Normal; 1=Slight; 2=Moderately abnormal; 3=Markedly abnormal; 4=Severely abnormal
Description: For one patient, before beginning a course of therapy in accordance with the inventive treatment, that patient's tremor score was Head 0, Right Hand 2, Left Hand 3. Treatment commenced for three months as follows:
The tremor score, after three months of treatment, improved to Head 0, Right Hand 1, Left Hand 2. Treatment then continued for an additional three months with an increase in the daily dosage of Riboflavin to 800 mg. The tremor score was then measured to be Head 0, Right Hand 0, Left Hand 1. […] Moreover, if treatment was resumed, there was a return to reduced tremor levels after 2 to 3 days.

[4] = test system: tremor on action and intention due to Depakote; seizures; experiment: One patient with severe epilepsy and Depakote-induced tremor treated with the inventive vitamin therapy; conditions: one patient with severe epilepsy on high dose Depakote
Source text: Other conditions that are commonly seen in patients with essential tremor, such as deafness, motion sickness, balance difficulties, and cognitive problems may be benefited by this treatment. Additionally, patients who develop tremors due to the use of medications that cause tremor (such as Depakote and Lithium) may benefit by the use of the inventive vitamin therapy. […] Other neurological conditions, such as epilepsy, when associated with tremor, may be benefited by the inventive vitamin therapy.

essential tremor [5] = experiment: Riboflavin daily in 15 persons over 50 with essential tremor, Fahn-Tolosa-Marin clinical tremor rating; conditions: 200 mg to 1000 mg of riboflavin on a daily basis
[6] = after an additional three months with Riboflavin increased to 800 mg daily, same co-administered vitamins and coenzyme Q10

Cc1cc2nc3c(=O)[nH]c(=O)nc-3n(C[C@H](O)[C@H](O)[C@H](O)CO)c2cc1C [Riboflavin, riboflavin]
Tremor Score After Rx, Hands (essential tremor [1]; patient # 1, 400 mg daily, 6 wks., concomitant None): Hands 1 | Tremor Score After Rx, Head (essential tremor [1]; patient # 1, 400 mg daily, 6 wks., before Rx Head 2, concomitant tremor medications None): Head 1 | Tremor Score After Rx, Hands (essential tremor [1]; patient # 2, 600 mg daily, 3 mos., concomitant None): Hands 1 | Tremor Score After Rx, Head (essential tremor [1]; patient # 2, 600 mg daily, 3 mos., before Rx Head 2, concomitant None): Head 1 | Tremor Score After Rx, Head (essential tremor [1]; patient # 3, 400 mg daily, 4 wks., before Rx Head 0, concomitant None): Head 0 | Tremor Score After Rx, L Hand (essential tremor [1]; patient # 3, 400 mg daily, 4 wks., before Rx L Hand 4, concomitant None): L Hand 3 | Tremor Score After Rx, R Hand (essential tremor [1]; patient # 3, 400 mg daily, 4 wks., before Rx R Hand 3, concomitant None): R Hand 2 | Tremor Score After Rx, Head (essential tremor [1]; patient # 4, 800 mg daily, 2 wks., before Rx Head 0, concomitant None): Head 0 | Tremor Score After Rx, L Hand (essential tremor [1]; patient # 4, 800 mg daily, 2 wks., before Rx L Hand 3, concomitant None): L Hand 2 | Tremor Score After Rx, R Hand (essential tremor [1]; patient # 4, 800 mg daily, 2 wks., before Rx R Hand 2, concomitant None): R Hand 2 | Tremor Score After Rx, Head (essential tremor [1]; patient # 5, 400 mg daily, 7 mos., before Rx Head 0, concomitant Inderal LA 80 mg.): Head 0 | Tremor Score After Rx, L Hand (essential tremor [1]; patient # 5, 400 mg daily, 7 mos., before Rx L Hand 3, concomitant Inderal LA 80 mg.): L Hand 2 | Tremor Score After Rx, R Hand (essential tremor [1]; patient # 5, 400 mg daily, 7 mos., before Rx R Hand 2, concomitant Inderal LA 80 mg.): R Hand 2 | Tremor Score After Rx, Head (essential tremor [1]; patient # 6, 400 mg daily, 12 mos., before Rx Head 0, concomitant Inderal LA 60): Head 0 | Tremor Score After Rx, L Hand (essential tremor [1]; patient # 6, 400 mg daily, 12 mos., before Rx L Hand 2, concomitant Inderal LA 60): L Hand 1 | Tremor Score After Rx, R Hand (essential tremor [1]; patient # 6, 400 mg daily, 12 mos., before Rx R Hand 2, concomitant Inderal LA 60): R Hand 1 | Tremor Score After Rx, Head (essential tremor [1]; patient # 7, 400 mg daily, 4 wks., before Rx Head 0, concomitant None): Head 0 | Tremor Score After Rx, L Hand (essential tremor [1]; patient # 7, 400 mg daily, 4 wks., before Rx L Hand 2, concomitant None): L Hand 1 | Tremor Score After Rx, R Hand (essential tremor [1]; patient # 7, 400 mg daily, 4 wks., before Rx R Hand 2, concomitant None): R Hand 1 | Tremor Score After Rx, Head (essential tremor [1]; patient # 8, 600 mg daily, 4 wks., before Rx Head 0, concomitant Topamax): Head 0 | Tremor Score After Rx, L Hand (essential tremor [1]; patient # 8, 600 mg daily, 4 wks., before Rx L hand 4, concomitant Topamax): L Hand 3 | Tremor Score After Rx, R Hand (essential tremor [1]; patient # 8, 600 mg daily, 4 wks., before Rx R hand 4, concomitant Topamax): R Hand 3 | Tremor Score After Rx, Head (essential tremor [1]; patient # 9, 400 mg daily, 4 wks., before Rx Head 0, concomitant Mysoline, Inderal and Topamax): Head 0 | Tremor Score After Rx, L Hand (essential tremor [1]; patient # 9, 400 mg daily, 4 wks., before Rx L Hand 4, concomitant Mysoline, Inderal and Topamax): L hand 3 | Tremor Score After Rx, R Hand (essential tremor [1]; patient # 9, 400 mg daily, 4 wks., before Rx R Hand 4, concomitant Mysoline, Inderal and Topamax): R Hand 4 | Tremor Score After Rx, Head (essential tremor [1]; patient # 10, 800 mg daily, 4 mos., before Rx Head 0, concomitant Mysoline, Inderal and Topamax): Head 0 | Tremor Score After Rx, L Hand (essential tremor [1]; patient # 10, 800 mg daily, 4 mos., before Rx L Hand 3, concomitant Mysoline, Inderal and Topamax): L Hand 2 | Tremor Score After Rx, R Hand (essential tremor [1]; patient # 10, 800 mg daily, 4 mos., before Rx R Hand 4, concomitant Mysoline, Inderal and Topamax): R Hand 4 | Tremor Score After Rx, Head (essential tremor [1]; patient # 11, 400 mg daily, 1 year, before Rx Head 2, concomitant None): Head 1 | Tremor Score After Rx, L Hand (essential tremor [1]; patient # 11, 400 mg daily, 1 year, before Rx L Hand 2, concomitant None): L Hand 1 | Tremor Score After Rx, R Hand (essential tremor [1]; patient # 11, 400 mg daily, 1 year, before Rx R Hand 2, concomitant None): R Hand 1 | Tremor Score After Rx, Head (essential tremor [1]; patient # 12, 400 mg daily, 2 wks., before Rx Head not given, concomitant None): Head 2 | Tremor Score After Rx, L Hand (essential tremor [1]; patient # 12, 400 mg daily, 2 wks., before Rx L Hand not given, concomitant None): L Hand 2 | Tremor Score After Rx, R Hand (essential tremor [1]; patient # 12, 400 mg daily, 2 wks., before Rx R hand 2, concomitant None): R Hand 1 | Tremor Score After Rx, Head (essential tremor [1]; patient # 13, 400 mg daily, 3 wks., before Rx Head 0, concomitant None): Head 0 | Tremor Score After Rx, L Hand (essential tremor [1]; patient # 13, 400 mg daily, 3 wks., before Rx L Hand 2, concomitant None): L Hand 1 | Tremor Score After Rx, R Hand (essential tremor [1]; patient # 13, 400 mg daily, 3 wks., before Rx R Hand 2, concomitant None): R Hand 1 | Tremor Score After Rx, Head (essential tremor [1]; patient # 14, 400 mg daily, 5 mos., before Rx Head 0, concomitant None): Head 0 | Tremor Score After Rx, L Hand (essential tremor [1]; patient # 14, 400 mg daily, 5 mos., before Rx L Hand 2, concomitant None): L Hand 1 | Tremor Score After Rx, R Hand (essential tremor [1]; patient # 14, 400 mg daily, 5 mos., before Rx R Hand 2, concomitant None): R Hand 1 | Tremor Score After Rx, Head (essential tremor [1]; patient # 15, 400 mg daily, 1 mo., before Rx Head 0, concomitant None): Head 0 | Tremor Score After Rx, R Hand (essential tremor [1]; patient # 15, 400 mg daily, 1 mo., before Rx R Hand 1, concomitant None): R Hand 1 | symptoms after stopping daily intake (essential tremor [1]; within a few days of stopping the daily high dosage of riboflavin): the symptoms of essential tremor returned | side effect ([2]; general statement on the treatment): bright yellow urine | Side Effects ([2]; patient # 1, 400 mg daily, 6 wks.): None | Side Effects ([2]; patient # 2, 600 mg daily, 3 mos.): None | Side Effects ([2]; patient # 3, 400 mg daily, 4 wks.): None | Side Effects ([2]; patient # 4, 800 mg daily, 2 wks.): None | Side Effects ([2]; patient # 5, 400 mg daily, 7 mos., concomitant Inderal LA 80 mg.): None | Side Effects ([2]; patient # 6, 400 mg daily, 12 mos., concomitant Inderal LA 60): None | Side Effects ([2]; patient # 7, 400 mg daily, 4 wks.): None | Side Effects ([2]; patient # 8, 600 mg daily, 4 wks., concomitant Topamax): None | Side Effects ([2]; patient # 9, 400 mg daily, 4 wks., concomitant Mysoline, Inderal and Topamax): None | Side Effects ([2]; patient # 10, 800 mg daily, 4 mos., concomitant Mysoline, Inderal and Topamax): None | Side Effects ([2]; patient # 11, 400 mg daily, 1 year): None | Side Effects ([2]; patient # 12, 400 mg daily, 2 wks.): None | Side Effects ([2]; patient # 13, 400 mg daily, 3 wks.): None | Side Effects ([2]; patient # 14, 400 mg daily, 5 mos.): None | Side Effects ([2]; patient # 15, 400 mg daily, 1 mo.): None | head and hand findings following treatment (essential tremor [3]; additional three months with just daily Riboflavin (800 mg) and coenzyme Q10 (1000 mg)): stable head and hand findings | tremor score, Head (essential tremor [3]; [6]): 0 | tremor score, Left Hand (essential tremor [3]; [6]): 1 | tremor score, Right Hand (essential tremor [3]; [6]): 0 | tremor score, Head (essential tremor [3]; after three months of daily Riboflavin 400 mg + Coenzyme Q10 1000 mg + Thiamine 50 mg + Niacin 50 mg + Pantothenic Acid 50 mg, before Head 0): 0 | tremor score, Left Hand (essential tremor [3]; after three months of daily Riboflavin 400 mg + Coenzyme Q10 1000 mg + Thiamine 50 mg + Niacin 50 mg + Pantothenic Acid 50 mg, before Left Hand 3): 2 | tremor score, Right Hand (essential tremor [3]; after three months of daily Riboflavin 400 mg + Coenzyme Q10 1000 mg + Thiamine 50 mg + Niacin 50 mg + Pantothenic Acid 50 mg, before Right Hand 2): 1 | head and hand findings (essential tremor [3]; thereafter a year with just Riboflavin 800 mg daily): stable head and hand findings | tremor when treatment was missed (essential tremor [3]; treatment missed for two days or more): prior untreated levels of tremor returned | seizure frequency [4]: decreased | tremor on action and intention [4]: significantly improved | effect on symptoms of essential tremor (essential tremor [5]): ameliorates the symptoms of essential tremor

— US20070031394A1, “Method of treating neurological disorders” (priority 2005, published 2007)
